Experimental data from patent US20240238220A1, “METHODS FOR TREATING CANCERS” (priority 2023, published 2024).

Tests used:
H1299 tumor = assay: human NSCLC xenograft model bearing H1299 tumor; type: in vivo, Nude mice; details: oral gavage 120 mg/Kg/day; for tumor regression: 5 consecutive days of the week
Procedure: (§1) The anti-tumor activity of Compound A was evaluated in the human NSCLC xenograft model. Nude mice and C57BL/6 mice were subcutaneously inoculated with H1299 (1×10^6) and mouse lung epithelial cancer cells, TC-1 (2×10^5), respectively. Tumor volumes were measured beginning on day 4 or 5 after tumor inoculation according to the relationship (L×D^2)/2, where L is the long dimension and D is the short dimension. The xenograft tumor-bearing mice were administered by oral gavage with compound A (dissolved in 10% dimethyl sulfoxide (DMSO)/cottonseed oil) at 120 mg/Kg/day for consecutive 5 days of the week. Animal body weight and tumor size were measured twice weekly. ANOVA followed by a multiple comparison Scheff test was conducted to determine significant differences among the treatment group at p<0.05.

[1] = tested on: lung cancer cells, A549, H1299, H1975, CL1-5, and PC-9; assay: methylene blue dye assay, growth of lung cancer cells; type: cell-based; details: Homo sapiens; range over A549, H1299, H1975, CL1-5, PC-9; treated 1-5 μM for 1, 2 or 3 days; read-out: IC50 values (50% inhibition of cell viability)
Text: The effects of Compound A and Compound B on the growth of tumor cells were investigated in A549 (adenocarcinomic human alveolar epithelial cell), H1299 (human non-small cell lung carcinoma cell), H1975 (human non-small cell lung carcinoma cell), CL1-5 (human lung adenocarcinoma cell), and PC-9 (human lung adenocarcinoma cell) cell lines. A methylene blue dye assay (G. J. Finlay et al., Anal Biochem. 1984 June; 139(2):272-7) (11) was used to evaluate the inhibitory effect of Compound A and Compound B. Briefly, each of the cell lines with a logarithmic growth phase was cultured at a density of 2×10^4 to 4×10^4 cells per well in a 24-well plate, and treated with 1-5 μM of Compound A or Compound B for 1, 2, or 3 days. At the end of the incubation period, cells were fixed and stained with 0.5% methylene blue containing 50% ethanol for 30 minutes and then were washed and dried. The resulting colored residues were dissolved in 1% N-lauroyl-sarcosine, and optical density was read at 595 nm using a microplate reader. The IC50 value resulting from 50% inhibition of cell viability was calculated graphically as a comparison with vehicle control group. Each point represents the average of at least 3 independent experiments run in quadruple.

[2] = tested on: TC-1 tumor (mouse lung epithelial cancer cells); assay: mouse model bearing TC-1 tumor; type: in vivo, C57BL/6 mice; details: oral gavage 120 mg/Kg/day, p<0.05
Procedure: as §1

IC50 [1] [nM] | Compound | inhibitory activity on tumor (H1299 tumor; H1299 tumor, p<0.05) | tumor regression (H1299 tumor; day 35) | tumor regression (H1299 tumor; day 50) | inhibitory activity on tumor [2]
1500 to 3000 | COc1ccc(/C=C/C(=O)C(F)(CC2CCC2)C(=O)/C=C/c2ccc(OC)c(OC)c2)cc1OC [Compound A, 4-fluoro-4-cyclobutylmethyl-1,7-bis(3,4-dimethoxyphenyl)hepta-1,6-diene-3,5-dione] | statistically significant inhibitory activity | around 36% | around 43% | statistically significant inhibitory activity
2000 to 3300 | COc1ccc(/C=C/C(=O)C(CC2CCC2)C(=O)/C=C/c2ccc(OC)c(OC)c2)cc1OC [Compound B, 4-(cyclobutylmethyl)-1,7-bis(3,4-dimethoxyphenyl)hepta-1,6-diene-3,5-dione] |  |  |  | 
